Data set [1] is described as follows: Metabolic stability in human liver microsomes, unbound intrinsic clearance (Cl int/fu mic). It counts as in vitro ADME. To be noted: 0.5 μM compound, NADPH; for CLint scaled at 0.5 μM: human, liver microsomes, pH 7.4, human liver microsomes 0.25 mg/mL, read-out: Cl int, mic unb. (h) [l/h/kg] (unbound intrinsic clearance, human). In outline: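 Unbound intrinsic clearance is CLint divided by fu mic, with the unbound fraction measured by 4 h HTDialysis at 37 °C of 0.25 mg/ml microsomes spiked with 0.5 µM compound. For CLint, 0.5 µM compound was incubated with 0.25 mg/mL human microsomes and 1.0 mM NADPH (pH 7.4, 37 °C). Substrate loss over 30 min was measured by LC-MS/MS and t1/2 assumed first-order kinetics.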
For orientation: Liver microsomes are vesicles of endoplasmic reticulum, rich in cytochrome P450 enzymes.

A further data set addresses T1, 5-HT2C receptor (Homo sapiens, UniProt P28335).
T1 construct: host or cells: U2OS
The experiment in a line: Human 5-HT2C functional assay (beta-arrestin2 recruitment, U2OS_HTR2C_β-Arrestin cells). Format: cell-based. To be noted: for EC50: beta-arrestin2 recruitment, U2OS_HTR2C_β-Arrestin cells, 1.5 h incubation, read-out: EC50 5-HT2C (potency in functional assay). A digest of the protocol: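 EC50 and relative efficacy came from 4-parameter variable-slope fits, normalised to 10 µM 5-HT or maximal 5-HT response (100%). Luminescent β-galactosidase enzyme-complementation signal was read after 1.5 h compound exposure in U2OS_HTR2C_β-Arrestin cells held in 1% serum medium from the prior day.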

Setting [2] is: relative efficacy vs response to 10 μM 5-HT or maximal 5-HT effect (100%).

23 compounds from patent US20190062305A1, “PYRIDYL OR PYRAZINYL COMPOUNDS CARRYING A METHYL-BOUND ALPHA-AMINO ACID AMIDE GROUP” (ABBVIE DEUTSCHLAND GMBH & CO. KG, priority 2015, published 2019) can be followed below.

Where a name gives a salt, the structure may show the parent alone.

T1 sequence (P28335 33-458): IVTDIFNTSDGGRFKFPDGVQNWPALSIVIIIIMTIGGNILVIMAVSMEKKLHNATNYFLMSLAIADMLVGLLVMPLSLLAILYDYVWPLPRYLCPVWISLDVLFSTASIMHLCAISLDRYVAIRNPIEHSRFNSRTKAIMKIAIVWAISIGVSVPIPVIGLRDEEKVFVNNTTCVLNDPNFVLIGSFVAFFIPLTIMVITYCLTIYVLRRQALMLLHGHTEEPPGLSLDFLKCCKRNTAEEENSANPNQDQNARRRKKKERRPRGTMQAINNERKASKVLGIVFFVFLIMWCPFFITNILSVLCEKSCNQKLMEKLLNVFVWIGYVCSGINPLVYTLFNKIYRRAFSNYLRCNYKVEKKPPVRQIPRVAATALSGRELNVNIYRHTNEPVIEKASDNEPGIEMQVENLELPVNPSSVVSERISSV
T1 sequence (P32121 whole entry partner): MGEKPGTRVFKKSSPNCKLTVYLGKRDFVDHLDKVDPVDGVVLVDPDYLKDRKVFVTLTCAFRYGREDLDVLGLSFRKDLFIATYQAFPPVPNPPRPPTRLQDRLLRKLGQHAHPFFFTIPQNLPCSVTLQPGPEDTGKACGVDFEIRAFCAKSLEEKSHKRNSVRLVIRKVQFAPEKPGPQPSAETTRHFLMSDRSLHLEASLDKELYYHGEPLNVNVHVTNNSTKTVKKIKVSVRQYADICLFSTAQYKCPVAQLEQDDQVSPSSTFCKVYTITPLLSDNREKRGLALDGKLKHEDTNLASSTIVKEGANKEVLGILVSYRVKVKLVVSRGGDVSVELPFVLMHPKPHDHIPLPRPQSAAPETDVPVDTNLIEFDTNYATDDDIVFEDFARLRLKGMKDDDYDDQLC

A word on the EC50: it is the concentration that produces a half-maximal response. As a reminder, the Emax is the size of the effect at its maximum, as opposed to the concentration needed. On to `COc1nc(N2CCC(F)C2)c(F)cc1CNC(=O)[C@@H]1CCCN1` (stereo partly drawn) [Example 162, (2S)—N-[[5-Fluoro-6-(3-Fluoropyrrolidin-1-yl)-2-methoxy-3-pyridyl]methyl]-pyrrolidine-2-carboxamide; 2,2,2-trifluoroacetic Acid], for which the CLint scaled at 0.5 μM in data set [1] lay within 5 to 50 L/h/kg. Moreover, on 5-HT2C receptor, the EC50 lay in the range of 0.02 to 0.2 µM. The Emax on 5-HT2C receptor (setting [2]) fell in the range of 50 to 70%.
Consider `COCCCCc1nc(OC)c(CNC(=O)[C@@H]2CCCN2)cc1F` [Example 193, (2S)—N-[[5-Fluoro-2-methoxy-6-(4-methoxybutyl)-3-pyridyl]methyl]pyrrolidine-2-carboxamide], for which, in data set [1], the CLint scaled at 0.5 μM is less than 5 L/h/kg. Moreover, the EC50 at 5-HT2C receptor lay in the range of 0.2 to 1 µM. On 5-HT2C receptor (setting [2]), this compound gave an Emax of more than 70%.
As for `COc1nc(OCC2CC2(F)F)c(F)cc1CNC(=O)[C@@H]1CCCN1C` (stereo partly drawn) [Example 68, (2S)—N-[[6-[(2,2-Difluorocyclopropyl)methoxy]-5-fluoro-2-methoxy-3-pyridyl]-methyl]-1-methyl-pyrrolidine-2-carboxamide Hydrochloride], the CLint scaled at 0.5 μM in data set [1] was less than 5 L/h/kg. In addition, the EC50 on 5-HT2C receptor is less than 0.02 µM. At 5-HT2C receptor (setting [2]), this compound displayed an Emax of more than 70%.
In the case of `COc1nc(N2CCOC(c3ccccc3)C2)c(F)cc1CNC(=O)[C@@H]1CCCN1` (stereo partly drawn) [Example 173, (2S)—N-[[5-Fluoro-2-methoxy-6-(2-phenylmorpholin-4-yl)-3-pyridyl]methyl]-pyrrolidine-2-carboxamide; 2,2,2-trifluoroacetic Acid], the CLint scaled at 0.5 μM in data set [1] lay in the range of 5 to 50 L/h/kg. For the same compound, the EC50 on 5-HT2C receptor was in the range of 0.2 to 1 µM. At 5-HT2C receptor (setting [2]), this compound showed a maximum response (Emax) of 50 to 70%.
As to `COc1nc(N2CC(Oc3ccc(Cl)cc3)C2)c(F)cc1CNC(=O)[C@@H]1CCCN1` [Example 151, (2S)—N-[[6-[3-(4-Chlorophenoxy)azetidin-1-yl]-5-fluoro-2-methoxy-3-pyridyl]methyl]pyrrolidine-2-carboxamide; 2,2,2-trifluoroacetic Acid], in data set [1], the CLint scaled at 0.5 μM is 50 to 500 L/h/kg. Besides, the EC50 on 5-HT2C receptor fell in the range of 0.2 to 1 µM. The Emax at 5-HT2C receptor (setting [2]) was more than 70%.
As to `COc1nc(OCC2CC(F)(F)C2(F)F)c(F)cc1CN(C)C(=O)[C@@H]1CCCN1C` (stereo partly drawn) [Example 103, (2S)—N-[[5-Fluoro-2-methoxy-6-[(2,2,3,3-tetrafluorocyclobutyl)methoxy]-3-pyridyl]methyl]-N,1-dimethyl-pyrrolidine-2-carboxamide Hydrochloride], the CLint scaled at 0.5 μM in data set [1] was less than 5 L/h/kg. Also, the EC50 at 5-HT2C receptor fell in the range of 0.02 to 0.2 µM. Moreover, the Emax at 5-HT2C receptor (setting [2]) fell in the range of 50 to 70%.
Regarding `COc1nc(C2CC2C(F)(F)F)c(F)cc1CNC(=O)[C@@H]1CCCN1` (stereo partly drawn) [Example 139, (2S)—N-[[5-fluoro-2-methoxy-6-[2-(trifluoromethyl)cyclopropyl]-3-pyridyl]methyl]pyrrolidine-2-carboxamide; 2,2,2-trifluoroacetic Acid], in data set [1], the CLint scaled at 0.5 μM fell in the range of 5 to 50 L/h/kg. For the same compound, the half-maximal effective concentration (EC50) at 5-HT2C receptor fell in the range of 0.2 to 1 µM. On 5-HT2C receptor (setting [2]), this compound registered an Emax of 30 to 50%.
With `COc1nc(OCC(C)CC(F)(F)F)c(F)cc1CNC(=O)[C@@H]1CCCN1` (stereo partly drawn) [Example 49, (2S)—N-[[5-Fluoro-2-methoxy-6-(4,4,4-trifluoro-2-methyl-butoxy)-3-pyridyl]-methyl]pyrrolidine-2-carboxamide; Succinic Acid], in data set [1], the CLint scaled at 0.5 μM is 5 to 50 L/h/kg. For the same compound, the EC50 on 5-HT2C receptor is less than 0.02 µM. The Emax on 5-HT2C receptor (setting [2]) is more than 70%.
For `COc1nc(O[C@@H]2CCC(F)(F)C2)c(F)cc1CNC(=O)[C@@H]1CCCN1C` [Example 27, (2S)—N-[[6-[(1R)-3,3-Difluorocyclopentoxy]-5-fluoro-2-methoxy-3-pyridyl]methyl]-1-methyl-pyrrolidine-2-carboxamide Hydrochloride], in data set [1], the CLint scaled at 0.5 μM is less than 5 L/h/kg. Further, at 5-HT2C receptor, the EC50 was less than 0.02 µM. The Emax at 5-HT2C receptor (setting [2]) is more than 70%.
For `COc1nc(OCC2CCC(F)(F)C2)c(F)cc1CNC(=O)[C@@H]1CCCN1` (stereo partly drawn) [Example 6, (2S)—N-[[6-[(3,3-Difluorocyclopentyl)methoxy]-5-fluoro-2-methoxy-3-pyridyl]-methyl]pyrrolidine-2-carboxamide; Fumaric Acid], the CLint scaled at 0.5 μM in data set [1] is less than 5 L/h/kg. In addition, on 5-HT2C receptor, the EC50 is less than 0.02 µM. For the same compound, the Emax at 5-HT2C receptor (setting [2]) is more than 70%.
Consider `COc1nc(NCC2CC(F)(F)C2)c(F)cc1CNC(=O)[C@@H]1CCCN1` [Example 136, (2S)—N-[[6-[(3,3-Difluorocyclobutyl)methylamino]-5-fluoro-2-methoxy-3-pyridyl]methyl]pyrrolidine-2-carboxamide; 2,2,2-trifluoroacetic Acid], for which the CLint scaled at 0.5 μM in data set [1] was less than 5 L/h/kg. Moreover, the EC50 at 5-HT2C receptor is less than 0.02 µM. In addition, the Emax at 5-HT2C receptor (setting [2]) was more than 70%.
On to `COc1nc(OC2CCC(F)(F)CC2)c(F)cc1CNC(=O)[C@@H]1CCN1` [Example 37, (2S)—N-[[6-(4,4-Difluorocyclohexoxy)-5-fluoro-2-methoxy-3-pyridyl]methyl]-azetidine-2-carboxamide; Succinic Acid], for which the CLint scaled at 0.5 μM in data set [1] is less than 5 L/h/kg. The EC50 on 5-HT2C receptor was less than 0.02 µM. For the same compound, the Emax on 5-HT2C receptor (setting [2]) was 50 to 70%.
Regarding `COc1nc(O[C@H]2CC[C@@H](F)CC2)c(F)cc1CNC(=O)[C@@H]1CCCN1` [Example 30, (2S)—N-[[5-Fluoro-6-(cis-4-fluorocyclohexoxy)-2-methoxy-3-pyridyl]methyl]-pyrrolidine-2-carboxamide; Fumaric Acid], in data set [1], the CLint scaled at 0.5 μM is less than 5 L/h/kg. In addition, the EC50 on 5-HT2C receptor was less than 0.02 µM. Further, on 5-HT2C receptor (setting [2]), the Emax was more than 70%.
Turning to `COc1nc(OC2CCC(F)(F)CC2)c(F)cc1CNC(=O)[C@@H]1CCCN1` [Example 1, (2S)—N-[[6-(4,4-Difluorocyclohexoxy)-5-fluoro-2-methoxy-3-pyridyl]methyl]-pyrrolidine-2-carboxamide; Fumaric Acid], the CLint scaled at 0.5 μM in data set [1] is less than 5 L/h/kg. For the same compound, the EC50 on 5-HT2C receptor was less than 0.02 µM. Besides, the Emax on 5-HT2C receptor (setting [2]) was more than 70%.
For `COc1nc(OCC2CCC(F)(F)CC2)c(F)cc1CNC(=O)[C@@H]1CCCN1` [Example 4, (2S)—N-[[6-[(4,4-Difluorocyclohexyl)methoxy]-5-fluoro-2-methoxy-3-pyridyl]-methyl]pyrrolidine-2-carboxamide; Fumaric Acid], the CLint scaled at 0.5 μM in data set [1] was in the range of 5 to 50 L/h/kg. Also, the half-maximal effective concentration (EC50) at 5-HT2C receptor is less than 0.02 µM. The Emax at 5-HT2C receptor (setting [2]) was more than 70%.
The like results for `COc1nc(N2CCC(F)CC2)c(F)cc1CNC(=O)[C@@H]1CCCN1` [Example 160, (2S)—N-[[5-Fluoro-6-(4-fluoro-1-piperidyl)-2-methoxy-3-pyridyl]methyl]-pyrrolidine-2-carboxamide; 2,2,2-trifluoroacetic Acid] were, in that order, less than 5 L/h/kg, 0.02 to 0.2 µM and 50 to 70%.
`COc1nc(OC2CC(F)(F)C2)c(F)cc1CN(C)C(=O)[C@@H]1CCCN1` [Example 78, (2S)—N-[[6-(3,3-Difluorocyclobutoxy)-5-fluoro-2-methoxy-3-pyridyl]methyl]-N-methyl-pyrrolidine-2-carboxamide Hydrochloride]: in data set [1], the CLint scaled at 0.5 μM was less than 5 L/h/kg. For the same compound, the EC50 on 5-HT2C receptor is less than 0.02 µM. For the same compound, the maximal effect (Emax) at 5-HT2C receptor (setting [2]) is more than 70%.
On to `COc1nc(OC[C@H]2CCC(F)(F)C2)c(F)cc1CNC(=O)[C@@H]1CCCN1C` [Example 17, (2S)—N-[[6-[[(1S)-3,3-Difluorocyclopentyl]methoxy]-5-fluoro-2-methoxy-3-pyridyl]methyl]-1-methyl-pyrrolidine-2-carboxamide; Fumaric Acid], for which the CLint scaled at 0.5 μM in data set [1] was in the range of 5 to 50 L/h/kg. For the same compound, the EC50 on 5-HT2C receptor lay in the range of 0.02 to 0.2 µM. The same compound gave a maximal response (Emax) on 5-HT2C receptor (setting [2]) of 50 to 70%.
Turning to `COc1nc(OCC(F)(F)F)c(F)cc1CNC(=O)[C@@H]1CCCN1` [Example 87, (2S)—N-[[5-Fluoro-2-methoxy-6-(2,2,2-trifluoroethoxy)-3-pyridyl]methyl]-pyrrolidine-2-carboxamide; 2,2,2-trifluoroacetic Acid], the CLint scaled at 0.5 μM in data set [1] is less than 5 L/h/kg. The EC50 at 5-HT2C receptor was less than 0.02 µM. Besides, the Emax at 5-HT2C receptor (setting [2]) is more than 70%.
On to `COc1nc(OCC2CCC(C(F)(F)F)CC2)c(F)cc1CNC(=O)[C@@H]1CCCN1` (stereo partly drawn) [Example 14, (2S)—N-[[5-Fluoro-2-methoxy-6-[[4-(trifluoromethyl)cyclohexyl]methoxy]-3-pyridyl]methyl]pyrrolidine-2-carboxamide; Fumaric Acid], for which the CLint scaled at 0.5 μM in data set [1] was 50 to 500 L/h/kg. Further, the EC50 at 5-HT2C receptor was less than 0.02 µM. The compound also registered an Emax at 5-HT2C receptor (setting [2]) of more than 70%.
Turning to `COc1nc(OCCCC(F)(F)F)c(F)cc1CNC(=O)[C@@H]1CCCN1` [Example 40, (2S)—N-[[5-Fluoro-2-methoxy-6-(4,4,4-trifluorobutoxy)-3-pyridyl]methyl]-pyrrolidine-2-carboxamide; Succinic Acid], the CLint scaled at 0.5 μM in data set [1] was less than 5 L/h/kg. At 5-HT2C receptor, the EC50 is less than 0.02 µM. The same compound registered an Emax on 5-HT2C receptor (setting [2]) of more than 70%.
For the compound `COc1nc(NC2CCC(F)(F)CC2)c(F)cc1CN(C)C(=O)[C@@H]1CCCN1` [Example 166, (2S)—N-[[6-[(4,4-Difluorocyclohexyl)amino]-5-fluoro-2-methoxy-3-pyridyl]methyl]-N-methyl-pyrrolidine-2-carboxamide; 2,2,2-trifluoroacetic Acid], the CLint scaled at 0.5 μM in data set [1] was less than 5 L/h/kg. Also, the EC50 on 5-HT2C receptor was in the range of 0.02 to 0.2 µM. The compound also returned a maximal response (Emax) at 5-HT2C receptor (setting [2]) of 50 to 70%.
Turning to `COc1nc(N[C@H]2CC[C@H](C(F)(F)F)CC2)c(F)cc1CNC(=O)[C@@H]1CCCN1.Cl` [Example 144, (2S)—N-[[5-Fluoro-2-methoxy-6-[[trans-4-(trifluoromethyl)cyclohexyl]amino]-3-pyridyl]methyl]pyrrolidine-2-carboxamide Hydrochloride], the “Cl int, mic unb. (h) [l/h/kg] (unbound intrinsic clearance, human)” value in data set [1] (human liver microsomes 0.25 mg/mL) was “++ (from 5 to <50 l/h/kg)”. At 5-HT2C receptor, the EC50 lay within 0.02 to 0.2 µM. For the same compound, the “% efficacy” value on 5-HT2C receptor (setting [2]) is on record as “+++ (>70%)”.
